From patent US11419852B2, “Beta-lactam compounds or salts thereof for use in long-acting prevention or treatment of a glucose metabolism disorder” (GLYCOLYSIS BIOMED CO., LTD., priority 2019, dated 2022)
Marks after values point to notes of the source that are not given here.

Legend:
Assay type in all cases: in vivo
[1] = test system: db/db mice; test: Oral glucose tolerance test (OGTT); design: OGTT AUC: unit not given here; conditions: for OGTT AUC: Ex 3: db/db mice, daily dosing 3 weeks at doses of Table 10
Procedure: Four to five weeks old db/db mice (BKS.Cg-Dock7^m+/+Lepr^db/JNarl) and m/m mice (BKS.Cg-Dock7^m+/Dock7^m+) were obtained from National Laboratory Animal Center ([…], Taiwan). […] PMI Nutrition International, Brentwood, Mo.) and water ad libitum. […] Blood was sampled from the tail vein, and FPG levels were measured and recorded as the basic blood glucose levels. […] The total area under the curve (AUC) in OGTT was plotted and calculated by the Area Under Coordinates Program (StatsToDo Server, Department of Obstetrics and Gynecology, Chinese University of Hong Kong).

[2] = Body weight of mice recorded weekly; conditions: Ex 3: db/db mice, daily dosing 3 weeks at doses of Table 10
Procedure: (§1) Four to five weeks old db/db mice (BKS.Cg-Dock7^m+/+Lepr^db/JNarl) and m/m mice (BKS.Cg-Dock7^m+/Dock7^m+) were obtained from National Laboratory Animal Center ([…], Taiwan). […] PMI Nutrition International, Brentwood, Mo.) and water ad libitum. […] The mouse body weight (bw) and the amounts of water and food intake were recorded weekly for the entire study period.

[3] = test system: db/db mice; test: Plasma biochemical parameters (AST, ALT, BUN, Cr, HbA1c)
Procedure: Inflammatory markers such as serum aspartate aminotransferase (AST), alanine aminotransferase (ALT), blood urea nitrogen (BUN), creatinine (Cr), and hemoglobin Alc (HbAlc) were measured using a BMC-Hitachi 717 chemistry auto analyzer.

[4] = Food and water intake of mice; conditions: for Food intake in db/db mice / Water intake in db/db mice: Ex 3, P<0.05; for Diet intake / Water intake: Ex 3: db/db mice, daily dosing 3 weeks at doses of Table 10
Procedure: as §1

[5] = Ex 3, after the treatments had been stopped for 6 weeks
[6] = Ex 3: db/db mice, daily dosing 3 weeks at doses of Table 10, week 9

Compound | OGTT AUC ([1]; Week 6 (stopped for 3 weeks)) | OGTT AUC ([1]; Week 9 (stopped for 6 weeks)) | Body weight ([2]; Baseline) | Body weight ([2]; Final) | Body weight ([2]; Week 3) | Body weight ([2]; Week 6 (stopped for 3 weeks)) | Body weight ([2]; Week 9 (stopped for 6 weeks)) | Level of AST [3, 5] | Level of HbA1c [3, 5] | ALT [3, 6] | AST [3, 6] | BUN [3, 6] | Creatinine [3, 6] | HbA1c [3, 6] | Food intake in db/db mice [4] | Water intake in db/db mice [4] | Diet intake [4] | Water intake [4] | ALT ([3]; mouse, in vivo) | AST ([3]; mouse, in vivo) | further results
CO/N=C(\C(=O)N[C@@H]1C(=O)N2C(C(=O)O)=C(CSc3nc(=O)c(=O)[nH]n3C)CS[C@H]12)c1csc(N)n1 [CEFT, ceftriaxone] | 1276 ± 69^b | 1483 ± 37^ce | 30.0 ± 1^b | 37.8 ± 2^c | 32.9 ± 1^cd | 34.1 ± 2^b | 38.8 ± 2^c | reduce | reduce | 80 ± 7^bc U/L | 104 ± 10^ac U/L | 38 ± 2^bc mg/dL | 0.428 ± 0.01^b mg/dL | 4.9 ± 0.2^c % | significantly reduced | significantly reduced | 5.0 ± 1^b g/mice/day | 7.1 ± 1^b mL/mice/day |  |  | Level of ALT [3, 5]: reduce; Level of BUN [3, 5]: reduce; Level of Cr [3, 5]: reduce
C[C@@H](O)[C@H]1C(=O)N2C(C(=O)O)=C(S[C@@H]3CN[C@H](C(=O)N(C)C)C3)[C@H](C)[C@H]12 [MER, meropenem hydrate] | 1599 ± 39^c | 1648 ± 61^def | 28.3 ± 1^b | 36.0 ± 2^bc | 33.6 ± 1^cd | 37.1 ± 1b^c | 38.2 ± 2^c | reduce |  | 89 ± 5^bcd U/L | 93 ± 8^ab U/L | 43 ± 2^bd mg/dL | 0.488 ± 0.03^cde mg/dL | 6.9 ± 0.3^e % |  |  | 5.9 ± 1^c g/mice/day | 14.7 ± 1^e mL/mice/day |  |  | 
CC1(C)S[C@@H]2[C@H](NC(=O)Cc3ccccc3)C(=O)N2[C@H]1C(=O)O [PEN, penicillin G] | 1088 ± 91^b | 1181 ± 69^b | 31.1 ± 1^b | 32.2 ± 1^b | 25.7 ± 1^b | 24.6 ± 1^a | 32.4 ± 1^b |  | reduce |  |  |  |  | 4.2 ± 0.2^a % | significantly reduced | significantly reduced | 4.0 ± 0.9^a g/mice/day | 8.3 ± 4^c mL/mice/day | 72 ± 20^ab U/L | 169 ± 24^de U/L | Regulation of blood glucose homeostasis (OGTT glucose vs G8) ([1]; Ex 3, medications stopped for at least 3 weeks (FIG. 6A, 6B)): still effective; BUN ([3]; mouse, in vivo): 41 ± 5^bd mg/dL; Creatinine ([3]; mouse, in vivo): 0.424 ± 0.02^ab mg/dL
tienam |  |  |  |  |  |  |  |  |  |  |  |  |  |  |  |  |  |  | 104 ± 10^cd U/L | 212 ± 43^e U/L | BUN ([3]; mouse, in vivo): 47 ± 4^d mg/dL; Creatinine ([3]; mouse, in vivo): 0.473 ± 0.05^be mg/dL
